Measurements reported in PubChem BioAssay (NCI).
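GI50 = concentration required for 50% inhibition of growth. The concentration for full growth arrest is given as TGI.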

Columns and labels:
Assay in all cases: NCI-60 cell line screen, 384-well format
SF-295 CNS = test system: SF-295 CNS
NCI-H522 lung = test system: NCI-H522 lung
UACC-62 melanoma = test system: UACC-62 melanoma
NCI/ADR-RES ovarian = test system: NCI/ADR-RES ovarian
OVCAR-3 ovarian = test system: OVCAR-3 ovarian
SK-MEL-5 melanoma = test system: SK-MEL-5 melanoma
NCI-H23 lung = test system: NCI-H23 lung
SK-OV-3 ovarian = test system: SK-OV-3 ovarian
RPMI-8226 leukemia = test system: RPMI-8226 leukemia
A498 renal = test system: A498 renal
SK-MEL-28 melanoma = test system: SK-MEL-28 melanoma
HL-60(TB) leukemia = test system: HL-60(TB) leukemia
UACC-257 melanoma = test system: UACC-257 melanoma
CAKI-1 renal = test system: CAKI-1 renal
HS 578T breast = test system: HS 578T breast
BT-549 breast = test system: BT-549 breast
OVCAR-8 ovarian = test system: OVCAR-8 ovarian
HOP-62 NSCLC = test system: HOP-62 NSCLC
MALME-3M melanoma = test system: MALME-3M melanoma
A549 NSCLC = test system: A549 NSCLC
MCF7 breast = test system: MCF7 breast
KM12 colon = test system: KM12 colon
SF-539 CNS = test system: SF-539 CNS
HCC-2998 colon = test system: HCC-2998 colon
MDA-MB-468 breast = test system: MDA-MB-468 breast
HOP-92 NSCLC = test system: HOP-92 NSCLC
SR leukemia = test system: SR leukemia
CCRF-CEM leukemia = test system: CCRF-CEM leukemia
SN12C renal = test system: SN12C renal
OVCAR-4 ovarian = test system: OVCAR-4 ovarian
TK-10 renal = test system: TK-10 renal
786-0 renal = test system: 786-0 renal
NCI-H460 NSCLC = test system: NCI-H460 NSCLC
NCI-H226 lung = test system: NCI-H226 lung
LOX IMVI melanoma = test system: LOX IMVI melanoma
U251 glioblastoma = test system: U251 glioblastoma
RXF 393 renal = test system: RXF 393 renal
COLO 205 colon = test system: COLO 205 colon
ACHN renal = test system: ACHN renal
MDA-MB-231 breast = test system: MDA-MB-231 breast
SF-268 CNS = test system: SF-268 CNS
HT29 colon = test system: HT29 colon
HCT-116 colon = test system: HCT-116 colon
EKVX NSCLC = test system: EKVX NSCLC
HCT-15 colon = test system: HCT-15 colon
UO-31 renal = test system: UO-31 renal
MOLT-4 leukemia = test system: MOLT-4 leukemia
MDA-MB-435 melanoma = test system: MDA-MB-435 melanoma
SNB-19 CNS = test system: SNB-19 CNS
T-47D breast = test system: T-47D breast
SNB-75 CNS = test system: SNB-75 CNS
IGROV1 ovarian = test system: IGROV1 ovarian
SW-620 colon = test system: SW-620 colon
PC-3 prostate = test system: PC-3 prostate
DU-145 prostate = test system: DU-145 prostate
M14 melanoma = test system: M14 melanoma
OVCAR-5 ovarian = test system: OVCAR-5 ovarian
NCI-H322M lung = test system: NCI-H322M lung

Compound: CS(=O)(=O)c1ccc(Oc2cc(F)cc(C#N)c2)c2c1[C@H](O)[C@H](F)[C@@H]2F
- GI50 (SF-295 CNS): > 100 µM
- TGI (SF-295 CNS): > 100 µM
- GI50 (NCI-H522 lung): > 100 µM
- TGI (NCI-H522 lung): > 100 µM
- GI50 (UACC-62 melanoma): > 100 µM
- TGI (UACC-62 melanoma): > 100 µM
- GI50 (NCI/ADR-RES ovarian): > 100 µM
- TGI (NCI/ADR-RES ovarian): > 100 µM
- GI50 (OVCAR-3 ovarian): > 100 µM
- TGI (OVCAR-3 ovarian): > 100 µM
- GI50 (SK-MEL-5 melanoma): > 100 µM
- TGI (SK-MEL-5 melanoma): > 100 µM
- GI50 (NCI-H23 lung): > 100 µM
- TGI (NCI-H23 lung): > 100 µM
- GI50 (SK-OV-3 ovarian): > 100 µM
- TGI (SK-OV-3 ovarian): > 100 µM
- GI50 (RPMI-8226 leukemia): > 100 µM
- TGI (RPMI-8226 leukemia): > 100 µM
- GI50 (A498 renal): > 100 µM
- TGI (A498 renal): > 100 µM
- GI50 (SK-MEL-28 melanoma): > 100 µM
- TGI (SK-MEL-28 melanoma): > 100 µM
- GI50 (HL-60(TB) leukemia): > 100 µM
- TGI (HL-60(TB) leukemia): > 100 µM
- GI50 (UACC-257 melanoma): > 100 µM
- TGI (UACC-257 melanoma): > 100 µM
- GI50 (CAKI-1 renal): > 100 µM
- TGI (CAKI-1 renal): > 100 µM
- GI50 (HS 578T breast): > 100 µM
- TGI (HS 578T breast): > 100 µM
- GI50 (BT-549 breast): > 100 µM
- TGI (BT-549 breast): > 100 µM
- GI50 (OVCAR-8 ovarian): > 100 µM
- TGI (OVCAR-8 ovarian): > 100 µM
- GI50 (HOP-62 NSCLC): > 100 µM
- TGI (HOP-62 NSCLC): > 100 µM
- GI50 (MALME-3M melanoma): > 100 µM
- TGI (MALME-3M melanoma): > 100 µM
- GI50 (A549 NSCLC): > 100 µM
- TGI (A549 NSCLC): > 100 µM
- GI50 (MCF7 breast): > 100 µM
- TGI (MCF7 breast): > 100 µM
- GI50 (KM12 colon): > 100 µM
- TGI (KM12 colon): > 100 µM
- GI50 (SF-539 CNS): > 100 µM
- TGI (SF-539 CNS): > 100 µM
- GI50 (HCC-2998 colon): > 100 µM
- TGI (HCC-2998 colon): > 100 µM
- GI50 (MDA-MB-468 breast): > 100 µM
- TGI (MDA-MB-468 breast): > 100 µM
- GI50 (HOP-92 NSCLC): > 100 µM
- TGI (HOP-92 NSCLC): > 100 µM
- GI50 (SR leukemia): > 100 µM
- TGI (SR leukemia): > 100 µM
- GI50 (CCRF-CEM leukemia): > 100 µM
- TGI (CCRF-CEM leukemia): > 100 µM
- GI50 (SN12C renal): > 100 µM
- TGI (SN12C renal): > 100 µM
- GI50 (OVCAR-4 ovarian): > 100 µM
- TGI (OVCAR-4 ovarian): > 100 µM
- GI50 (TK-10 renal): > 100 µM
- TGI (TK-10 renal): > 100 µM
- GI50 (786-0 renal): > 100 µM
- TGI (786-0 renal): > 100 µM
- GI50 (NCI-H460 NSCLC): > 100 µM
- TGI (NCI-H460 NSCLC): > 100 µM
- GI50 (NCI-H226 lung): > 100 µM
- TGI (NCI-H226 lung): > 100 µM
- GI50 (LOX IMVI melanoma): > 100 µM
- TGI (LOX IMVI melanoma): > 100 µM
- GI50 (U251 glioblastoma): > 100 µM
- TGI (U251 glioblastoma): > 100 µM
- GI50 (RXF 393 renal): > 100 µM
- TGI (RXF 393 renal): > 100 µM
- GI50 (COLO 205 colon): > 100 µM
- TGI (COLO 205 colon): > 100 µM
- GI50 (ACHN renal): > 100 µM
- TGI (ACHN renal): > 100 µM
- GI50 (MDA-MB-231 breast): > 100 µM
- TGI (MDA-MB-231 breast): > 100 µM
- GI50 (SF-268 CNS): > 100 µM
- TGI (SF-268 CNS): > 100 µM
- GI50 (HT29 colon): > 100 µM
- TGI (HT29 colon): > 100 µM
- GI50 (HCT-116 colon): > 100 µM
- TGI (HCT-116 colon): > 100 µM
- GI50 (EKVX NSCLC): > 100 µM
- TGI (EKVX NSCLC): > 100 µM
- GI50 (HCT-15 colon): > 100 µM
- TGI (HCT-15 colon): > 100 µM
- GI50 (UO-31 renal): > 100 µM
- TGI (UO-31 renal): > 100 µM
- GI50 (MOLT-4 leukemia): > 100 µM
- TGI (MOLT-4 leukemia): > 100 µM
- GI50 (MDA-MB-435 melanoma): > 100 µM
- TGI (MDA-MB-435 melanoma): > 100 µM
- GI50 (SNB-19 CNS): > 100 µM
- TGI (SNB-19 CNS): > 100 µM
- GI50 (T-47D breast): > 100 µM
- TGI (T-47D breast): > 100 µM
- GI50 (SNB-75 CNS): > 100 µM
- TGI (SNB-75 CNS): > 100 µM
- GI50 (IGROV1 ovarian): > 100 µM
- TGI (IGROV1 ovarian): > 100 µM
- GI50 (SW-620 colon): > 100 µM
- TGI (SW-620 colon): > 100 µM
- GI50 (PC-3 prostate): > 100 µM
- TGI (PC-3 prostate): > 100 µM
- GI50 (DU-145 prostate): > 100 µM
- TGI (DU-145 prostate): > 100 µM
- GI50 (M14 melanoma): > 100 µM
- TGI (M14 melanoma): > 100 µM
- GI50 (OVCAR-5 ovarian): > 100 µM
- TGI (OVCAR-5 ovarian): > 100 µM
- GI50 (NCI-H322M lung): > 100 µM
- TGI (NCI-H322M lung): > 100 µM
